Marks after values point to notes of the source that are not given here.
Legend:
[1] = tested on: LPS-stimulated RAW264.7 cells; assay: NO production (Griess reagent) in LPS-stimulated RAW264.7 cells; format: cell-based, Mouse; details: for NO production, Average / NO production, Average (μM): then LPS (500 ng/mL) 20 h, LPS alone 25.9, control 3.1; for Anti-inflammatory effect (inhibition of NO secretion), in words: 20, 40, and 80 μM, compared with LPS-only treatment
Description: A high concentration of NO promotes the synthesis of inflammatory mediators, leading to an inflammatory response, and has been reported to be a cause of various immune diseases. Therefore, this study was conducted to investigate the effect of coumarin derivatives on the production of NO induced by LPS stimulation in RAW264.7 cells. The cells were treated with coumarin derivatives at concentrations of 20, 40, and 80 μM for 2 h. Then, the cells were treated with LPS. After 20 h, the culture supernatant was recovered, and the amount of NO was measured. […] The anti-inflammatory activity of these derivatives depended on the position of the substituted group rather than the electron density of the substituted group.
The Griess reagent was used to measure NO production. RAW264.7 cells were seeded into a 96-well plate and cultured for 24 h. The cells were treated with 20, 40, and 80 μM of coumarin derivatives, cultured for 2 h, and then cultured with LPS (500 ng/mL) for 20 h. The same amount of cell supernatant and Griess reagent were used for the reaction, and absorbance was measured at 540 nm.

in vitro = format: cell-based; details: mouse, RAW264.7 cells, then LPS (500 ng/mL) 20 h, read-out: Cell viability, Average (%); for viability at 22 h, 20 μM: 20 μM for 2 h; for viability at 22 h, 40 μM: 40 μM for 2 h; for viability at 22 h, 80 μM: 80 μM for 2 h
Description: To investigate the anti-inflammatory activity of coumarin derivatives, cell viability was analyzed by treating RAW264.7 cells with 23 types of coumarin derivatives at concentrations of 20, 40, and 80 μM for 2 h and with LPS for 20 h.
Mouse macrophage RAW264.7 cells were purchased from the Korea Cell Line Bank (Seoul, Republic of Korea) and cultured in Dulbecco’s Modified Eagle Medium (Corning, NY, USA) containing 10% fetal bovine serum and 1% penicillin/streptomycin at 37 °C and 5% CO2. The medium was changed every 2 days and subcultured when the cells grew > 80%.
EZ-Cytox cell viability assay kit (Dogen, Suwon, Republic of Korea) was used to measure cell viability according to the manufacturer’s instructions. RAW264.7 cells were seeded into a 96-well plate (1 × 10^5 cells/well) and treated with coumarin derivatives at concentrations of 20, 40, and 80 μM. After 2 h, the cells were treated with LPS (500 ng/mL) and cultured for 24 h in a 37 °C, 5% CO2 incubator. The culture supernatant was treated with 10% EZ-Cytox reagent, and a microplate reader was used to measure the absorbance at 450 nm.

SMILES	NO production, Average ([1]; 20 μM for 2 h)	NO production, Average ([1]; 40 μM for 2 h)	NO production, Average ([1]; 80 μM for 2 h)	Anti-inflammatory effect (inhibition of NO secretion), in words [1]	viability at 22 h, 20 μM (in vitro)	viability at 22 h, 40 μM (in vitro)	viability at 22 h, 80 μM (in vitro)	NO production, Average (μM) ([1]; 80 μM for 2 h)	NO production, Average (μM) ([1]; 40 μM for 2 h)
N#CC1=C(N)Oc2c(c(=O)oc3ccccc23)C1c1ccccc1Br (centres unmarked) [Coumarin derivative 18]	28.03 µM	27.87 µM	25.95 µM	almost no anti-inflammatory effect	129%	130%	138%		
N#CC1=C(N)Oc2c(c(=O)oc3ccccc23)C1c1ccc(C#N)cc1 (centres unmarked) [Coumarin derivative 22]	31.41 µM	28.84 µM	22.89 µM	weak anti-inflammatory effects at high concentrations	120%	122%	114%		
N#CC1=C(N)Oc2c(c(=O)oc3ccccc23)C1c1cccc(Br)c1 (centres unmarked) [Coumarin derivative 19]	27.07 µM	17.76 µM		inhibited NO secretion in a concentration-dependent manner	117%	119%	120%	10.05 *** μM	
N#CC1=C(N)Oc2c(c(=O)oc3ccccc23)C1c1cccc(C#N)c1 (centres unmarked) [Coumarin derivative 21]	28.68 µM	22.73 µM		weak anti-inflammatory effects	131%	122%	102%	11.97 *** μM	
N#CC1=C(N)Oc2c(c(=O)oc3ccccc23)C1c1ccccc1F (centres unmarked) [Coumarin derivative 1]	29.50 µM	29.82 µM	28.71 µM	almost no anti-inflammatory effect	90.4%	96%	109%		
N#CC1=C(N)Oc2c(c(=O)oc3ccccc23)C1c1ccccc1Cl (centres unmarked) [Coumarin derivative 7]	32.83 µM	29.66 µM	27.60 µM		106%	121%	124%		
N#CC1=C(N)Oc2c(c(=O)oc3ccccc23)C1c1ccc(C(F)(F)F)cc1 (centres unmarked) [Coumarin derivative 6]	30.92 µM	26.49 µM		weak anti-inflammatory effects at high concentrations	98.7%	111%	111%	16.82 *** μM	
N#CC1=C(N)Oc2c(c(=O)oc3ccccc23)C1c1ccccc1OC(F)(F)F (centres unmarked) [Coumarin derivative 12]	16.58 µM			showed anti-inflammatory effects	99.2%	102%	106%	17.98 *** μM	17.28 *** μM
N#CC1=C(N)Oc2c(c(=O)oc3ccccc23)C1c1ccc(F)cc1 (centres unmarked) [Coumarin derivative 3]	27.60 µM	28.86 µM	22.84 µM		95.4%	101%	110%		
COc1ccccc1C1C(C#N)=C(N)Oc2c1c(=O)oc1ccccc21 (centres unmarked) [Coumarin derivative 15]	26.33 µM	22.71 µM		showed anti-inflammatory effects	109%	112%	114%	19.37 ** μM	
N#CC1=C(N)Oc2c(c(=O)oc3ccccc23)C1c1ccc(Cl)cc1 (centres unmarked) [Coumarin derivative 8]	32.19 µM	24.11 µM			103%	107%	93.5%	10.64 *** μM	
COc1ccc(C2C(C#N)=C(N)Oc3c2c(=O)oc2ccccc32)cc1 (centres unmarked) [Coumarin derivative 17]	28.68 µM	26.11 µM		weak anti-inflammatory effects at high concentrations	122%	122%	137%	20.16 ** μM	
Cc1ccc(C2C(C#N)=C(N)Oc3c2c(=O)oc2ccccc32)cc1 (centres unmarked) [Coumarin derivative 11]	24.80 µM	26.47 µM	26.19 µM		113%	108%	122%		
N#CC1=C(N)Oc2c(c(=O)oc3ccccc23)C1c1ccccc1 (centres unmarked) [Coumarin derivative 23]	30.77 µM	29.80 µM	27.39 µM		119%	118%	117%		
N#CC1=C(N)Oc2c(c(=O)oc3ccccc23)C1c1cccc(C(F)(F)F)c1 (centres unmarked) [Coumarin derivative 5]	30.77 µM	28.71 µM	25.38 µM	almost no anti-inflammatory effects	86.8%	110%	113%		
COc1cccc(C2C(C#N)=C(N)Oc3c2c(=O)oc2ccccc32)c1 (centres unmarked) [Coumarin derivative 16]	27.58 µM	26.33 µM			107%	102%	96.3%	16.17 *** μM	
N#CC1=C(N)Oc2c(c(=O)oc3ccccc23)C1c1ccc(OC(F)(F)F)cc1 (centres unmarked) [Coumarin derivative 14]	27.72 µM	24.52 µM		weak anti-inflammatory effects at high concentrations	110%	95.8%	102%	16.31 *** μM	
